Reference: patent publication US20230295152A1 (SENDA BIOSCIENCES, INC., priority 2019, published 2023)
pIC50: −log10 of the molar value.

Legend:
AHR = target: T1, AHR (Homo sapiens, UniProt P35869); assay: DRE-Luciferase Reporter Assay, HepG2 AhR-Lucia reporter cells; format: cell-based; details: with AHR activating ligand at EC50, read-out: HepG2-Luc IC50
T1 construct: other cell line with a DRE-luciferase reporter stably transfected; endogenous in cells; host or cells: HepG2 AhR-Lucia reporter cells
T1 sequence (P35869 11-848): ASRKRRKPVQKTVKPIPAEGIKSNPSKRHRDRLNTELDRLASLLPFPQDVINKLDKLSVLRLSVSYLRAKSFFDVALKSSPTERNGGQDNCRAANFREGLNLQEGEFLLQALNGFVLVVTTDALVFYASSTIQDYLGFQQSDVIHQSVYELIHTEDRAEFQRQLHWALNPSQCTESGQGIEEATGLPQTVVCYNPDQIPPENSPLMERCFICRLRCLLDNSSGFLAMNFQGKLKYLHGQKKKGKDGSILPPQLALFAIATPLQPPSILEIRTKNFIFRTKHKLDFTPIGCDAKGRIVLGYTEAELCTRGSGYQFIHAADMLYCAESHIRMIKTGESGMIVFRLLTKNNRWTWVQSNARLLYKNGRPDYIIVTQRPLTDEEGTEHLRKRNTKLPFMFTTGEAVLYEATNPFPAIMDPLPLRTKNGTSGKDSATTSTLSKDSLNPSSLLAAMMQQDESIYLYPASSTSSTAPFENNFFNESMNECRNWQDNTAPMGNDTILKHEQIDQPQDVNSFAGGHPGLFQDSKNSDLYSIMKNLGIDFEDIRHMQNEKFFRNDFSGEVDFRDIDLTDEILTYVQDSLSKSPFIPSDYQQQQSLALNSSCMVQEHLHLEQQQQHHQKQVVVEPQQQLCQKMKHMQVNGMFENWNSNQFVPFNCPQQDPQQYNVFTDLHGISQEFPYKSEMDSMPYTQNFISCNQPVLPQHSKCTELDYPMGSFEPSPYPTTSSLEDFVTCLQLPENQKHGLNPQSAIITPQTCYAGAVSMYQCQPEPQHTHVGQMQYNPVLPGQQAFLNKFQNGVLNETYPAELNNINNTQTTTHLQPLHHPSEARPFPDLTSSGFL
How it was run: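 DRE-luciferase reporter cells (e.g. HepG2 AhR-Lucia, 20000 cells) treated with antagonist log dilutions from 100 uM, then an AHR agonist (e.g. TCDD, kynurenine, ITE, FICZ) at its EC50 added after 1 hr. Secreted luciferase measured after 24 or 48 h (QUANTI-Luc); IC50 = concentration halving luciferase activity.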

[1] = Hepatocyte Stability Assay, rat; format: in vitro ADME; details: for Rat hepatocyte clearance: rat hepatocytes; on all read-outs here: tested at 1 µM
Method: • Preparation of working solutions: 10 mM stock solutions of test compound and positive control were prepared in DMSO. In separate conical tubes, the 10 mM solution of test compound and the positive control were diluted to 100 μM by combining 198 μL of 50% acetonitrile/50% water and 2 μL of 10 mM stock.
Preparation of Hepatocytes: Incubation medium (William's E Medium supplemented with GlutaMAX) and hepatocyte thawing medium were placed in a 37° C. water bath and allowed warming for at least 15 minutes prior to use. A vial of cryopreserved hepatocytes was transferred from storage, ensuring that vials remained at cryogenic temperatures until thawing process ensued. Cells were thawed by placing the vial in a 37° C. water bath and gently shaking the vials for 2 minutes. After thawing was completed, vial was sprayed with 70% ethanol and transferred to a biosafety cabinet. Wide-bore pipette tip were used to transfer hepatocytes into 50 mL conical tube containing thawing medium. The 50 mL conical tube were placed into a centrifuge and spun at 100 g for 10 minutes. Upon completion of spin, thawing medium was aspirated and resuspended hepatocytes in enough incubation medium to yield ˜1.5×10^6 cells/mL. Using an AO/PI Staining, cells were counted and the viable cell density was determined. Cells with poor viability (<75% viability) were determined to be not acceptable for use. Cells were diluted with incubation medium to a working cell density of 0.5×10^6 viable cells/mL.
Procedure for Stability Determination: 198 μL of hepatocytes were pipetted into each wells of a 96-well non-coated plate. The plate was placed in the incubator to allow the hepatocytes to warm for 10 minutes. 2 μL of the 100 μM test compound or positive control solutions were pipetted into respective wells of the 96-well non-coated plate to start the reaction. The plate was returned to the incubator for the designed time points. Well contents was transferred in 25 μL aliquots at time points of 0, 15, 30, 60, 90 and 120 minutes. The aliquots were then mixed with 6 volumes (150 μL) of acetonitrile containing internal standard, IS (100 nM alprazolam, 200 nM caffeine and 100 nM tolbutamide) to terminate the reaction. The mixture was vortex for 5 minutes. Samples were centrifuged for 45 minutes at 3,220 g. An aliquot of 100 μL of the supernatant was diluted by 100 μL ultra-pure water, and the mixture was used for LC/MS/MS analysis. All incubations were performed in duplicate.
Data Analysis: All calculations were carried out using Microsoft Excel. Peak areas were determined from extracted ion chromatograms. In vitro half-life (t1/2) of parent compound was determined by regression analysis of the percent parent disappearance vs. time curve.
The in vitro half-life (in vitro t1/2) was determined from the slope value:
Conversion of the in vitro t1/2 (in min) into the in vitro intrinsic clearance (in vitro CLint, in μL/min/1×10^6 cells) was done using the following equation (mean of duplicate determinations):
V=incubation volume(0.2 mL);
N=number of hepatocytes per well(0.1×10^6 cells).
“+++” indicates a CLint value less than 20 mL/min/Kg, “++” indicates a CLint between 20 and 50 mL/min/Kg, and “+” indicates an CLint above 50 mL/min/Kg.

pIC50 (AHR) | SMILES | Rat hepatocyte clearance [1] | Suspension Rat heps Clint (% Qh) ([1]; suspension rat hepatocytes)
> 7.00 | Cn1cc(-c2nc(-c3ccc(C(F)(F)F)cn3)cc3c(=O)n(CC(C)(C)O)cnc23)cn1 [Compound 103, 3-(2-hydroxy-2-methylpropyl)-8-(1-methyl-1H-pyrazol-4-yl)-6-(5-(trifluoromethyl)pyridin-2-yl)pyrido[3,4-d]pyrimidin-4(3H)-one] | ++ (“++” indicates a CLint between 20 and 50 mL/min/Kg) | –
> 7.00 | CC(C)(O)Cn1cnc2c(-c3cccnc3)nc(-c3ccc(C(F)(F)F)cc3)cc2c1=O [Compound 16] | +++ (“+++” indicates a CLint value less than 20 mL/min/Kg) | –
> 7.00 | C[C@@H](CO)n1cnc2c(-n3ccnc3)nc(-c3ccc(OC(F)(F)F)cc3)cc2c1=O [Compound 44, (S)-3-(1-hydroxypropan-2-yl)-8-(1H-imidazol-1-yl)-6-(4-(trifluoromethoxy)-phenyl)pyrido[3,4-d]pyrimidin-4(3H)-one] | +++ (“+++” indicates a CLint value less than 20 mL/min/Kg) | –
> 7.00 | C[C@@H](CO)n1cnc2c(-c3cccnc3)nc(-c3ccc(C(F)(F)F)nc3)cc2c1=O [Compound 12] | +++ (“+++” indicates a CLint value less than 20 mL/min/Kg) | –
> 7.00 | C[C@@H](n1cnc2c(-c3cccnc3)nc(-c3ccc(Cl)cc3)cc2c1=O)C(C)(C)O [Compound 33] | ++ (“++” indicates a CLint between 20 and 50 mL/min/Kg) | –
> 7.00 | O=c1c2cc(-c3ccc(Cl)cc3)nc(-c3cccnc3)c2ncn1C[C@H](O)C(F)(F)F (single isomer, unassigned) [185 enantiomer 2] | ++ (“++” indicates a CLint between 20 and 50 mL/min/Kg) | –
> 7.00 | C[C@@H](CO)n1cnc2c(-c3cnn(C)c3)nc(-c3ccc(C(F)(F)F)nc3)cc2c1=O [Compound 68] | +++ (“+++” indicates a CLint value less than 20 mL/min/Kg) | –
> 7.00 | C[C@@H](CO)n1cnc2c(-c3cncc(F)c3)nc(-c3ccc(OC(F)(F)F)cc3)cc2c1=O [Compound 1, (S)-8-(5-fluoropyridin-3-yl)-3-(1-hydroxypropan-2-yl)-6-(4-(trifluoromethoxy)phenyl)pyrido[3,4-d]pyrimidin-4(3H)-one] | ++ (“++” indicates a CLint between 20 and 50 mL/min/Kg) | –
> 7.00 | O=c1c2cc(-c3ccc(C(F)(F)F)nc3)nc(-c3cccnc3)c2ncn1[C@@H]1COC[C@H]1O [Compound 79] | +++ (“+++” indicates a CLint value less than 20 mL/min/Kg) | –
> 7.00 | Cn1cc(-c2nc(-c3ccc(Cl)cc3)cc3c(=O)n(CC(C)(C)O)cnc23)cn1 [Compound 21] | +++ (“+++” indicates a CLint value less than 20 mL/min/Kg) | –

SMILES | pIC50 (AHR) | Rat hepatocyte clearance [1] | Suspension Rat heps Clint (% Qh) ([1]; suspension rat hepatocytes)
C[C@@H](CO)n1cnc2c(-c3cccnc3)nc(-c3ccc(C(F)(F)F)cn3)cc2c1=O [Compound 46, (S)-3-(1-hydroxypropan-2-yl)-8-(pyridin-3-yl)-6-(5-(trifluoromethyl)pyridin-2-yl)pyrido[3,4-d]pyrimidin-4(3H)-one] | > 7.00 | +++ (“+++” indicates a CLint value less than 20 mL/min/Kg) | < 24
O=c1c2cc(-c3ccc(Cl)cc3)nc(-c3cccnc3)c2ncn1[C@H]1COC[C@@H]1O [Compound 125, 6-(4-chlorophenyl)-3-((3S,4R)-4-hydroxytetrahydrofuran-3-yl)-8-(pyridin-3-yl)pyrido[3,4-d]pyrimidin-4(3H)-one] | > 7.00 | + (“+” indicates an CLint above 50 mL/min/Kg) | –
C[C@H](n1cnc2c(-c3cnn(C)c3)nc(-c3ccc(Cl)cc3)cc2c1=O)C(C)(C)O [Compound 30] | > 7.00 | ++ (“++” indicates a CLint between 20 and 50 mL/min/Kg) | –
